Values quoted from earlier work, collected in the CATMoS acute toxicity set (Mansouri et al. 2021).
Values joined by “and” are separate entries in the source; they are usually repeats but may differ in a detail not shown here. Identical values can stand only once.

Assay: rat acute oral toxicity
Settings: in vivo

Compound	LD50
CCSN(C)C(=O)Oc1cccc2c1OC(C)(C)C2	25 mg/kg
O=[N+]([O-])c1cc[n+]([O-])cc1	107 mg/kg
O=C1C=CC(=NCl)C=C1	100 mg/kg
CC(=O)C=Cc1ccc(-c2ccccc2)cc1	2230 mg/kg
Cc1cccc(N)n1	100 mg/kg
CCC(=O)OCCOc1ccccc1	4400 mg/kg
C=C(OP(=O)(OC)OC)c1ccc(Cl)cc1Cl	2350 mg/kg
C=C(F)CO	130 mg/kg
Oc1cccc(Cl)c1-c1ccccc1	3500 mg/kg
C[C@@H]1CCC[C@H](C)N1CCCC(O)(c1ccccc1)c1ccccn1 (stereo partly drawn)	251 mg/kg
CC1=NOC(=O)/C1=N\Nc1ccccc1Cl	126 mg/kg
CCOC(C1=NCC(C)(C)CN1)c1ccc(Cl)cc1 (stereo not drawn)	190 mg/kg
NCCOCCO	3000 mg/kg
CC(=O)c1cccc(N=Nc2ccc(N(C)C)cc2)c1	4820 mg/kg
C[C@@H]1CCCCN1N=O	600 mg/kg
CCOC(=O)CC(C)(C)C(Cl)C=C(Cl)Cl (stereo not drawn)	3170 mg/kg
CCCCOCCOCCOCCCC	3900 mg/kg
C=C1/C(=C\C=C2/CCC[C@]3(C)[C@@H]([C@H](C)CCCC(C)(C)O)CC[C@@H]23)C[C@@H](O)C[C@@H]1O	0.62 mg/kg
CCCOCN(C(=O)CCl)c1c(C)cccc1OCC	2100 mg/kg
CCN(COC)N=O	540 mg/kg
NCCCNCCSP(=O)(O)O	826 mg/kg
O=CC=CC1CO1 (stereo not drawn)	62 mg/kg

Compound	LD50
CCCCC(=O)Cc1ccccc1	4400 mg/kg
O=C(c1ccc(Cl)cc1)c1ccccc1-c1ncc[nH]1	600 mg/kg
COc1cc(C=CC(=O)N2CCN(CC(=O)NC(C)C)CC2)cc(OC)c1OC	1300 mg/kg
CCC(C)(C)N/C(N)=N/C#N	300 mg/kg
CC(C)C(=O)OC(=O)C(C)C	7700 mg/kg
COc1ccc2c3c1O[C@H]1[C@H](N=[N+]=[N-])CC[C@H]4[C@@H](C2)N(C)CC[C@@]341	120 mg/kg
CCCCCCCCCCCCCCCCCCCCCCO	10000 mg/kg
NC(N)=NC(N)=NCc1ccccc1	481 mg/kg
COCCO[Si](CCCl)(OCCOC)OCCOC	878 mg/kg
O=NN1CCc2ccccc21	320 mg/kg
O=Cc1ccc([N+](=O)[O-])cc1	4700 mg/kg
C=CC=C	5480 mg/kg
Clc1ccc(C(Cn2ccnc2)OCc2c(Cl)cccc2Cl)c(Cl)c1 (stereo not drawn)	5600 mg/kg
CC(=O)c1ccc2c(c1)N(CCCN1CCOCC1)c1ccccc1S2	2500 mg/kg
C=C(C)C(=O)OCCSCC	7400 mg/kg
CC(C(=O)O)c1ccc(N2Cc3ccccc3C2=O)cc1 (stereo not drawn)	84 mg/kg and 60.8 mg/kg
COc1ccc2c(=O)c(C)c(C)oc2c1CN(C)C	7.8 mg/kg
CCCCCOc1ccc(Br)cc1COCCN1CCOCC1	1200 mg/kg
CCc1ccccc1N	1260 mg/kg
CCCCOc1ccc(OCC(=O)N(CCN(CC)CC)c2cc(OCC)ccc2OCC)cc1	2400 mg/kg
CC1(C)[C@H](C=C(Cl)Cl)[C@H]1C(=O)OCc1c(F)c(F)c(F)c(F)c1F	85 mg/kg
Brc1nc(Br)c(Br)[nH]1	34 mg/kg

Compound	LD50
CC(C)NCC(O)c1ccc(NS(C)(=O)=O)cc1 (stereo not drawn)	3450 mg/kg
CN(CCCCCCN(C)C(=O)Oc1ccc[n+](C)c1)C(=O)Oc1ccc[n+](C)c1	10 mg/kg
CC(CN(CCN(CC(C)OB(O)O)CC(C)OB(O)O)CC(C)OB(O)O)OB(O)O (stereo not drawn)	4930 mg/kg
CCN1CCC(=C2c3ccccc3CCc3ccccc32)C1C (stereo not drawn)	600 mg/kg
O=C(OCC1(COC(=O)c2cccnc2)CCCC(COC(=O)c2cccnc2)(COC(=O)c2cccnc2)C1O)c1cccnc1	10000 mg/kg
CCC(=O)CC	2140 mg/kg
COc1ccc(C(=O)CCC(=O)O)c2ccoc12	1230 mg/kg
CC(O)CF (stereo not drawn)	3260 mg/kg
CC(C)c1cccc(C(C)C)c1O	500 mg/kg
CCS	682 mg/kg
C=C(Cl)CCl	320 mg/kg
CCCCN(N=O)c1ccc(N(CCCC)N=O)cc1	2600 mg/kg
Cc1cccc(C)c1NC(=O)c1cc(S(N)(=O)=O)c(Cl)cc1O	1640 mg/kg
O=CNC(N1CCOCC1)C(Cl)(Cl)Cl (stereo not drawn)	990 mg/kg
CC(=O)OCCC(Cl)C(C)=O (stereo not drawn)	2050 mg/kg
COP(=S)(OC)Oc1ccc(S(C)(=O)=O)c(C)c1	125 mg/kg
CCCCCCCC=O	5630 mg/kg
O=C(O)CCC(CC(=O)O)(C(=O)O)P(=O)(O)O (stereo not drawn)	4000 mg/kg
CC(=O)c1ccc2oc3ncccc3c(=O)c2c1	1680 mg/kg
CCCCOc1ccc(CC(=O)NO)cc1	3370 mg/kg
C=C(Cl)C(=O)OC	68 mg/kg
N#CN=c1ccccn1Cc1ccccc1Cl	500 mg/kg

Compound	LD50
CCSCCOP(=S)(OC)OC	75 mg/kg
CCOP(=O)(Oc1ccc(Cl)cc1Cl)Oc1ccc(Cl)cc1Cl	6200 mg/kg
CN(C)C(CSC(N)=O)CSC(N)=O	250 mg/kg and 225 mg/kg
c1ccc2c(c1)ncc1ncsc12	350 mg/kg and 290 mg/kg
C1=CCCCC1	1950 mg/kg
CN(C)C1CSSSC1	195 mg/kg
CCCOc1ccc(C(CN(C)C)C(C)CC)cc1Cl (stereo not drawn)	741 mg/kg
C=CCOC(=O)/C=C\C(=O)OCC=C	300 mg/kg
CC(=NO)C(C)(O)C#Cc1ccccc1 (stereo not drawn)	3120 mg/kg
CCC(CC)C(=O)OCC(Br)(Br)Br	4000 mg/kg
O=S1(=O)CC=CC1	2550 mg/kg
N#CCCOCCCCOCCC#N	4000 mg/kg
CC(C)(C)CCCCC(=O)O	2070 mg/kg
Cc1c(Cl)cccc1Nc1ccccc1C(=O)O	225 mg/kg
CCCSc1cc(Oc2ccc([N+](=O)[O-])cc2)ccc1Cl	1130 mg/kg
O=[N+]([O-])c1cc(Br)cc2[nH]c(C(F)(F)F)nc12	1.23 mg/kg
OC1(c2ccc(Cl)cc2)N=CN[n+]2ccc3ccccc3c21 (stereo not drawn)	1300 mg/kg
COP(=S)(N=C1SCCS1)OC	10 mg/kg
CCN(CC)C(=O)CSc1ccc(Cl)nn1	1550 mg/kg
FC(F)(F)c1nc2c(Cl)ccc(Cl)c2[nH]1	2.61 mg/kg
CN(C1CCCCC1)C1CCCCC1	446 mg/kg
Nc1cccc(-n2ccccc2=O)c1	2300 mg/kg

Compound	LD50
Oc1ccc(C2=CCCCC2)cc1	2830 mg/kg
O=C(CN1CC1)NCCCCCCCCNC(=O)CN1CC1	225 mg/kg
O=C(O)c1ccccc1C(=O)O	7900 mg/kg
FC(F)OC(F)(F)C(F)Cl (stereo not drawn)	5450 mg/kg
CC1(C)SCN(C(=O)C2(Oc3ccc(Cl)cc3)CCCCC2)C1C(=O)O (stereo not drawn)	4350 mg/kg
COC(=O)C1=C(C)NC(C)=C(C(=O)OCCN2CCN(C(c3ccccc3)c3ccccc3)CC2)C1c1cccc([N+](=O)[O-])c1 (stereo not drawn)	156 mg/kg
C[N+](C)(C)CCOP(=O)(O)OP(=O)(O)OC[C@H]1O[C@@H](n2ccc(N)nc2=O)[C@H](O)[C@@H]1O	18500 mg/kg
OC[P+](CO)(CO)CO	232 mg/kg
CCN(CC)CCCNC(=O)C(C)(C)Oc1ccc(Cl)cc1	150 mg/kg
Oc1cc(O)cc(Sc2cc(O)cc(O)c2)c1	4290 mg/kg
C[N+](C)(C)CCOC(N)=O	40 mg/kg
C=C[C@@]1(C)CC(=O)[C@]2(O)[C@@]3(C)[C@@H](O)CCC(C)(C)[C@@H]3[C@H](O)[C@H](OC(C)=O)[C@@]2(C)O1	2550 mg/kg
O=C(O)CCCCCCCCC(=O)O	14400 mg/kg
CC(C)(Oc1ccc(Cl)cc1)C(=O)O	897 mg/kg
CCCc1c(OCCCCc2nnn[nH]2)ccc(C(C)=O)c1O	650 mg/kg
Cl[C@H]1[C@H](Cl)[C@@H](Cl)[C@H](Cl)[C@H](Cl)[C@H]1Cl (racemic)	177 mg/kg
C=C(C)OC(C)=O	3000 mg/kg
COc1ccc2c3c1O[C@H]1[C@@H](O)C=C[C@H]4[C@@H](C2)[N@@+](C)([O-])CC[C@@]341	1600 mg/kg
C[C@@H](N)[C@@H](O)c1ccccc1	1490 mg/kg
c1ccc2c3c([nH]c2c1)CCCC3	2650 mg/kg
